Test results taken from patent US20060148860A1, “Substituted p-phenyl carbamates” (Novo Nordisk A/S, priority 2003, published 2006).

Molecular target: T1, hormone sensitive lipase (HSL) (Homo sapiens, UniProt Q05469)
T1 sequence (Q05469 1-1076): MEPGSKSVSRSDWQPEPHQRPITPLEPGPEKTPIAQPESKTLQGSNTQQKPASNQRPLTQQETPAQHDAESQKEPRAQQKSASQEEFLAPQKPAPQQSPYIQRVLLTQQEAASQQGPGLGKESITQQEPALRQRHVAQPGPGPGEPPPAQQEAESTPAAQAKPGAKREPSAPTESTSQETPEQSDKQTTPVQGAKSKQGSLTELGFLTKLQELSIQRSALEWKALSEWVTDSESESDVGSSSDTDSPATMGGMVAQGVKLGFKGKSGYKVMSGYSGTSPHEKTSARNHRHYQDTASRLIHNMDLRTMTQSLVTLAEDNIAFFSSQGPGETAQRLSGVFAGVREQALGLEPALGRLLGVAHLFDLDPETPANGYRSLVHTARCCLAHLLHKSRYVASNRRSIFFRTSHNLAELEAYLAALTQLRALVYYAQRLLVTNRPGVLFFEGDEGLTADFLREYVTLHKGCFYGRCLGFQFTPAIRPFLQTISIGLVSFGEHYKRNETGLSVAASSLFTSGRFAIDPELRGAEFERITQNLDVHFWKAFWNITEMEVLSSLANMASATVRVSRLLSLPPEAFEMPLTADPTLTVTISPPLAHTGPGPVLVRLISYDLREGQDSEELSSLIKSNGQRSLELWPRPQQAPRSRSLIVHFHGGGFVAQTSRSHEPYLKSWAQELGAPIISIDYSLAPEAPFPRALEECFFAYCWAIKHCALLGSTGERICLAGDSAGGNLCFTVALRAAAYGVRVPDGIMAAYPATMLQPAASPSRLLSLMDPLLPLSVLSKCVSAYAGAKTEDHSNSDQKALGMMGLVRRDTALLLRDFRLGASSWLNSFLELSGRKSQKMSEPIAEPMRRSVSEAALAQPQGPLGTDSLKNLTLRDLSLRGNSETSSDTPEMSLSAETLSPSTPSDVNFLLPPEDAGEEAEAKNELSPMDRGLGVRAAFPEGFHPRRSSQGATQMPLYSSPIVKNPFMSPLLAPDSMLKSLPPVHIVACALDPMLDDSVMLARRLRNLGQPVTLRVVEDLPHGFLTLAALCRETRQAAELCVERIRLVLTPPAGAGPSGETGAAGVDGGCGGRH
Test: 3190.1: percent inhibition of hormone sensitive lipase at 10 μM (fluorochrome-labeled triacylglyceride emulsion, HSL_FL)
Assay type: biochemical
Details: 10 μM sample concentration; % activity relative to non-inhibited sample (no compound); 30 min pre-incubation at 25° C., 120 min at 37° C.
Excerpt: Materials. The Hormone-sensitive lipase was provided by Dr. Cecilia Holm, from Lund University Sweden or produced and purified by Novo Nordisk (NN) using the reagents and protocols used by Dr. Holm. The substrates used are: ^3H-labeled triolein (TO) from Amersham, Buckinghamshire, U.K. cat No. TRA191; 5-20 Ci/mmol dissolved in toluene, triolein (Sigma, Cat. No. T-1740), fluorochrome-labeled triacylglyceride (cis-octadec-9-enoic acid 2-[12-(7-nitrobenzo[1,2,5]oxadiazol-4-ylamino)dodecanoyloxy]-1-cis-octadec-9-enoyloxymethyl-ethyl ester) prepared by Novo Nordisk (NN) by conventional methods, and 1,3-(di[^3H]-stearin), 2-(PEG-Biotin)glycerol prepared in collaboration with Amersham Pharmacia Biotech, UK and described in WO 01/073442. Phosphatidyl choline (PC) and phosphatidyl inositol (PI) are from Sigma (St Luis Mo. cat. Nos. P-3556 and P-5954 respectively). All other reagents are of commercial grade and obtained from various commercial sources.
3190.1: Assay for determination of percent inhibition of hormone sensitive lipase by compound at 10 μM sample concentration.
A lipid emulsion with fluorochrome-labeled triacylglyceride and phospholipid is used as substrate with a standard concentration of highly purified HSL (12 μg/mL initial concentration corresponding to 600 ng/mL final concentration). BSA is added as product acceptor. The transfer of the fluorochrome from the lipid phase to the water (BSA) phase changes the fluorescent properties of the fluorochrome. The changes can be monitored on a fluorimeter with an excitation wavelength of 450 nm and an emission wavelength of 545 nm.
Compound and HSL (20 μL compound, 10 μL enzyme and 70 μL PED-BSA buffer) is pre-incubated for 30 min at 25° C. before addition of substrate (100 μL). Amount of formed product is measured after 120 min incubation at 37° C.
Results are given as percent activity relative to a non-inhibited sample (no compound).

`CN(C(=O)Oc1ccc(CCSc2ncc[nH]2)cc1)c1ccccc1` [Example 3, Methyl-phenyl-carbamic acid 4-[2-(1H-imidazol-2-ylsulfanyl)-ethyl]-phenyl ester] and `CN(C(=O)Oc1ccc(CSc2ncc[nH]2)cc1)c1ccccc1` [Example 2, Methyl-phenyl-carbamic acid 4-(1H-imidazol-2-ylsulfanylmethyl)-phenyl ester] are the same in activity at 10 µM: 1% for the first, 1% for the second.

Going from `Cc1cccc(Cc2ccc(OC(=O)N(C)c3ccccc3)cc2)n1` [Example 4, Methyl-phenyl-carbamic acid 4-(6-methyl-pyridin-2-ylmethyl)-phenyl ester] to `CN(C(=O)Oc1ccc(CCOc2ccncc2)cc1)c1ccccc1` [Example 1, Methyl-phenyl-carbamic acid 4-[2-(pyridin-4-yloxy)-ethyl]-phenyl ester], the activity at 10 µM falls from 5% to 1%.
